The term IC50 denotes the concentration that gives 50% inhibition.

Format in all cases: cell-based
The subject of assay [1] is Type III protein secretion of ExoU by P. aeruginosa PA103. The assay can be described thus: Tertiary assay: Type III-dependent secretion of ExoU by P. aeruginosa PA103. The conditions noted are these: Pseudomonas aeruginosa, read-out: ExoU IC50(uM). An excerpt:
Tertiary assay: inhibition of Type III protein secretion of effectors from a Pseudomonas aeruginosa system. Type III protein secretion is used by P. aeruginosa to secrete several essential virulence determinants. One effector of the type III protein secretion system of P. aeruginosa PA 103 is the virulence determinants ExoU.
The amount of Type III-dependent secretion of ExoU by P. aeruginosa PA103 can be determined in a cell-based assay by quantification of the 73.9 kDa ExoU protein secreted into the extracellular medium. Such quantitation can be achieved by growing strain PA 103 in a deferrated medium in the presence of nitrilotriacetic acid (an inducer of Type III protein secretion in P. aeruginosa) and either in the presence or absence of putative inhibitors. After a prolonged growth period, the cells are sedimented and the supernatants concentrated by ammonium sulfate precipitation. The proteins in the resuspended pellets are separated by electrophoresis on SDS-polyacrylamide gels. After staining gels with Colloidal Blue™, the 73.9 kDa ExoU band is quantitated by scanning through an imager. The effects of inhibitors on the intensity of the ExoU band may be measured relative to that of untreated controls.

The subject of assay [2] is SPI1 type III protein secretion of SopE'-'Bla by Salmonella enterica. As to the kind of experiment: Primary assay: Type III protein secretion of the chimeric SopE'-'Bla polypeptide by Salmonella enterica. Conditions: read-out: SopE IC50(uM). An excerpt: Primary assay: Type III protein secretion of the chimeric SopE′-′Bla polypeptide by Salmonella enterica. This procedure is a cell-based assay that measures the type III-dependent secretion by Salmonella enterica of a plasmid-encoded chimeric polypeptide whose synthesis can be regulated, and which is endowed with an enzymatic activity that can be monitored […] by hydrolysis of a substrate that is unable to penetrate into the bacterial cytoplasm within the time constraints of the reaction. Thus, the colorimetric reaction is not influenced by SopE′-′Bla polypeptide in the bacterial cytoplasm. Instead, it effectively measures the amount of polypeptide that has been secreted from the S. enterica cytoplasm to the extracellular medium via type III system protein secretion.
The SopE′-′Bla recombinant polypeptide consists of two functionally distinct domains spliced together. The N-terminus domain is encoded by a polynucleotide region specifying the signal for type III secretion of the SopE polypeptide of S. enterica, an effector of the SPI1 type III protein secretion system. The C-terminus domain of SopE′-′Bla consists of a 263 amino acid peptide sequence that corresponds to the TEM-1 β-lactamase expressed by plasmid pBR322 but without its N-terminal signal sequence. The TEM-1 β-lactamase part of the SopE′-′Bla chimeric polypeptide is used as a reporter enzyme. It is capable of hydrolyzing nitrocefin resulting in a product whose accumulation can be monitored by colorimetric detection. The secretion of the SopE′-′Bla chimeric polypeptide from the cytoplasm to the extracellular medium is dependent on type III protein secretion.
For this procedure, cells grown under conditions known to favor a functional SPI1 secretion system are induced for expression of the SopE′-′Bla protein and grown either in the presence or in the absence of putative inhibitors for determined time. Nitrocefin is then added to the various cultures and its hydrolysis are used for quantitation. An inhibitor of Type III protein secretion is generally a compound that reduces the signal of the enzymatic reaction by decreasing the amount of SopE′-′Bla secreted into the extracellular medium.

The test system of assay [3] is SPI1 type III protein secretion of SipB by S. enterica. The assay can be described thus: Secondary assay: Type III-dependent protein secretion of the SipB polypeptide by S. enterica. The conditions noted are these: Salmonella enterica, read-out: SipB IC50(uM). Here is the method: Secondary assay: Type III-dependent protein secretion of the SipB polypeptide by S. enterica. The SipB protein of S. enterica is another effector of the SPI1 type III protein secretion system from S. enterica. In this cell-based procedure, the Type III-dependent secretion of SipB from the bacterial cytoplasm to the extracellular medium was measured through its reactivity with a cognate mouse monoclonal.
Salmonella enterica cells growing either in the presence or in the absence of inhibitors are induced for the production of SipB. Following an established period of growth the cells are sedimented and the amount of SipB present in the supernatant is quantified with a scanning imager following application of immunoblot techniques. Detection may employ an anti-SipB mouse monoclonal antibody (e.g., obtained from Jorge Galan, SUNY at Stony Brook, N.Y.) followed by treatment with commercially available sheep anti-mouse polyclonal antibody conjugated with horseradish peroxidase. Thereafter the membrane is treated with a peroxidase chemiluminescent substrate and exposed to film for an appropriate exposure time. Inhibition may be measured relative to untreated controls.

A value given as a limit tells only on which side of the number the result lay.

With `O=C(NC(Cc1ccc(Cl)cc1)C(=O)O)c1cc(-c2cccc(C(F)(F)F)c2)nc(N2CCN(c3ccccc3)CC2)n1` (stereo in doubt) [Compound 31, (R)-3-(4-Chlorophenyl)-2-{[2-(4-phenyl-piperazin-1-yl)-6-(3-trifluoromethylphenyl)pyrimidine-4-carbonyl]amino}propionic acid], the IC50 amounted to 88.7 µM in assay [1], 4.1 µM in assay [2] and 13.3 µM in assay [3].

Consider `Cc1cc(C(=O)NC(Cc2ccc(Cl)cc2)C(=O)O)nc(-c2ccc(-c3ccccc3)cc2)n1` (stereo not drawn) [Compound 1, 2-[(2-Biphenyl-4-yl-6-methyl-pyrimidine-4-carbonyl)amino]-3-(4-chlorophenyl)-propionic acid], for which the IC50 in assay [1] turned out to be 83.9 µM; in assay [2], 7.4 µM; in assay [3], 4.4 µM.

For the molecule `O=C(N[C@@H](CSCc1ccccc1)C(=O)O)c1cc(N2CCCCC2)nc(-c2ccc(-c3ccccc3)cc2)n1` [Compound 3, (R)-3-Benzylsulfanyl-2-[(2-biphenyl-4-yl-6-piperidin-1-yl-pyrimidine-4-carbonyl)-amino]propionic acid], the IC50 in assay [1] was 37.6 µM; in assay [2] it was 4.1 µM; in assay [3] it was 3 µM.

As to `O=C(N[C@H](Cc1ccc(Cl)cc1)C(=O)O)c1cc(N2CCCCC2)nc(N2CCC(c3ccccc3)CC2)n1` [Compound 4, (R)-3-(4-Chlorophenyl)-2-{[2-(4-phenylpiperidin-1-yl)-6-piperidin-1-yl-pyrimidine-4-carbonyl]amino}propionic acid], the half-inhibitory concentration (IC50) in assay [1] was > 100 µM; in assay [2], 2 µM; in assay [3] it was 27 µM.

On to `CN(C)c1ccc(-c2nc(C(=O)N[C@H](Cc3ccc(Cl)cc3)C(=O)O)cc(N3CCc4ccccc4C3)n2)cc1` [Compound 6, (R)-3-(4-Chlorophenyl)-2-{[6-(3,4-dihydro-1H-isoquinolin-2-yl)-2-(4-dimethylaminophenyl)pyrimidine-4-carbonyl]amino}propionic acid], for which the IC50 is 68.4 µM in assay [1], 4.5 µM in assay [2] and 50 µM in assay [3].

As to `O=C(N[C@H](COCc1ccccc1)C(=O)O)c1cc(N2CCC(c3ccccc3)CC2)nc(-c2ccc(Cl)c(Cl)c2)n1` [Compound 11, (R)-3-Benzyloxy-2-{[2-(3,4-dichlorophenyl)-6-(4-phenylpiperidin-1-yl)-pyrimidine-4-carbonyl]amino}propionic acid], the IC50 in assay [1] was 92.2 µM; in assay [2], 1.4 µM; in assay [3], 44.2 µM.

With `O=C(N[C@H](Cc1ccc(Cl)cc1)C(=O)O)c1cc(N2CCC(c3ccccc3)CC2)nc(-c2cccc(C(F)(F)F)c2)n1` [Compound 12, (R)-3-(4-Chlorophenyl)-2-{[6-(4-phenylpiperidin-1-yl)-2-(3-trifluoromethyl-phenyl)pyrimidine-4-carbonyl]amino}propionic acid], the IC50 in assay [1] was > 100 µM; in assay [2], 1.4 µM; in assay [3], 28.1 µM.

For the molecule `O=C(N[C@H](Cc1ccc(Cl)cc1)C(=O)O)c1cc(N2CCCc3ccccc32)nc(-c2cccc(C(F)(F)F)c2)n1` [Compound 13, (R)-3-(4-Chlorophenyl)-2-{[6-(3,4-dihydro-2H-quinolin-1-yl)-2-(3-trifluoromethyl-phenyl)pyrimidine-4-carbonyl]amino}propionic acid], the figures for the IC50 in assay [1], in assay [2] and in assay [3] were > 100 µM, 1.3 µM and 19.4 µM, respectively.

Regarding `CN(C)c1ccc(-c2nc(C(=O)N[C@H](Cc3ccc(Cl)cc3)C(=O)O)cc(N3CCC(c4ccccc4)CC3)n2)cc1` [Compound 14, (R)-3-(4-Chlorophenyl)-2-{[2-(4-dimethylaminophenyl)-6-(4-phenylpiperidin-1-yl)pyrimidine-4-carbonyl]amino}propionic acid], the IC50 in assay [1] is > 100 µM; in assay [2], 1.8 µM; in assay [3], 27.6 µM.

Consider `O=C(N[C@H](Cc1ccc(Cl)cc1)C(=O)O)c1cc(N2CCC(c3ccccc3)CC2)nc(-c2ccc(C(F)(F)F)cc2)n1` [Compound 15, (R)-3-(4-Chlorophenyl)-2-{[6-(4-phenylpiperidin-1-yl)-2-(4-trifluoromethylphenyl)-pyrimidine-4-carbonyl]amino}propionic acid], for which the IC50 in assay [1] was 68.1 µM; in assay [2], 3.6 µM; in assay [3] it was 8.5 µM.

`O=C(N[C@H](Cc1ccc(Cl)cc1)C(=O)O)c1cc(N2CCCc3ccccc32)nc(-c2ccc(Oc3ccccc3)cc2)n1` [Compound 16, (R)-3-(4-Chlorophenyl)-2-{[6-(3,4-dihydro-2H-quinolin-1-yl)-2-(4-phenoxy-phenyl)pyrimidine-4-carbonyl]amino}propionic acid]: the figures for the IC50 in assay [1], in assay [2] and in assay [3] were 62.2 µM, 6.2 µM and 10.2 µM, respectively.

Take `O=C(N[C@@H](CSCc1ccccc1)C(=O)O)c1cc(N2CCC(c3ccc(F)cc3)CC2)nc(-c2ccc(Cl)c(Cl)c2)n1` [Compound 17, (R)-3-Benzylsulfanyl-2-({2-(3,4-dichlorophenyl)-6-[4-(4-fluorophenyl)piperidin-1-yl]pyrimidine-4-carbonyl}amino)propionic acid]: the IC50 in assay [1] was > 100 µM; in assay [2], 1.6 µM; in assay [3], 23 µM.

With `O=C(N[C@@H](CSCc1ccccc1)C(=O)O)c1cc(N2CCC(c3ccccc3)CC2)nc(-c2ccc(F)c(F)c2)n1` [Compound 18, (R)-3-Benzylsulfanyl-2-{[2-(3,4-difluorophenyl)-6-(4-phenylpiperidin-1-yl)-pyrimidine-4-carbonyl]amino}propionic acid], the IC50 in assay [1] stood at 46.6 µM; in assay [2], 19 µM; in assay [3], 16.8 µM.

Take `O=C(N[C@@H](CSCc1ccccc1)C(=O)O)c1cc(N2CCN(c3ccccc3)CC2)nc(-c2ccc(F)c(F)c2)n1` [Compound 19, (R)-3-Benzylsulfanyl-2-{[2-(3,4-difluorophenyl)-6-(4-phenyl-piperazin-1-yl)-pyrimidine-4-carbonyl]amino}propionic acid]: the IC50 turned out to be 67.8 µM in assay [1], 6.4 µM in assay [2] and 8 µM in assay [3].

Take `O=C(N[C@@H](CSCc1ccccc1)C(=O)O)c1cc(N2CCC(c3ccccc3)CC2)nc(-c2ccc(C(F)(F)F)cc2)n1` [Compound 21, (R)-3-Benzylsulfanyl-2-{[6-(4-phenylpiperidin-1-yl)-2-(4-trifluoromethylphenyl)-pyrimidine-4-carbonyl]amino}propionic acid]: the IC50 was 39 µM in assay [1], 3.6 µM in assay [2] and 24.8 µM in assay [3].

Consider `O=C(N[C@@H](CSCc1ccccc1)C(=O)O)c1cc(N2CCC(c3ccc(F)cc3)CC2)nc(-c2ccc(C(F)(F)F)cc2)n1` [Compound 22, (R)-3-Benzylsulfanyl-2-{[6-[4-(4-fluorophenyl)piperidin-1-yl]-2-(4-trifluoromethylphenyl)pyrimidine-4-carbonyl]amino}propionic acid], for which the IC50 was 52.6 µM in assay [1], 1.8 µM in assay [2] and > 100 µM in assay [3].

For the origin of these results see patent US20050282824A1, “Substituted pyrimidines as inhibitors of bacterial type III protein secretion systems” (priority 2004, published 2005).
